From PubChem BioAssay (NCI)
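96-well plates; 48 h exposure; 5 concentrations. Endpoints by linear interpolation between flanking doses. Not reached: highest tested concentration assigned. TGI: total growth inhibition.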 *1 amine or outer side, *2 acyl side, *3 side chain or, on linkers, in order; H or OH if unused. Where a SMILES comes first, the peptide text is derived from it. [ ]: non-standard residue; d: D form. The star is where a group is joined. ξ: configuration not given here. X27 = O=C([C@H]1CCC[C@H]1N[*:1])[*:2]; ξW = NC(Cc1c[nH]c2ccccc12)C(=O)O; ξF = NC(Cc1ccccc1)C(=O)O; Boc = CC(C)(C)OC(=O)*; ξK = NCCCCC(N)C(=O)O; ξT = CC(O)C(N)C(=O)O; tBu = CC(C)(C)*

Legend:
Assay in all cases: NCI-60 cell line screen, 48 h
A498 renal = test system: A498 renal
CAKI-1 renal = test system: CAKI-1 renal
COLO 205 colon = test system: COLO 205 colon
EKVX NSCLC = test system: EKVX NSCLC
HL-60(TB) leukemia = test system: HL-60(TB) leukemia
HOP-62 NSCLC = test system: HOP-62 NSCLC
HS 578T breast = test system: HS 578T breast
IGROV1 ovarian = test system: IGROV1 ovarian
KM12 colon = test system: KM12 colon
NCI-H226 lung = test system: NCI-H226 lung
NCI/ADR-RES ovarian = test system: NCI/ADR-RES ovarian
OVCAR-8 ovarian = test system: OVCAR-8 ovarian
PC-3 prostate = test system: PC-3 prostate
RXF 393 renal = test system: RXF 393 renal
SF-539 CNS = test system: SF-539 CNS
SK-OV-3 ovarian = test system: SK-OV-3 ovarian
SR leukemia = test system: SR leukemia
UACC-257 melanoma = test system: UACC-257 melanoma
MOLT-4 leukemia = test system: MOLT-4 leukemia

Row | SMILES | TGI (A498 renal) [µM] | TGI (CAKI-1 renal) [µM] | TGI (COLO 205 colon) [µM] | TGI (EKVX NSCLC) [µM] | TGI (HL-60(TB) leukemia) [µM] | TGI (HOP-62 NSCLC) [µM] | TGI (HS 578T breast) [µM] | TGI (IGROV1 ovarian) [µM] | TGI (KM12 colon) [µM] | TGI (NCI-H226 lung) [µM] | TGI (NCI/ADR-RES ovarian) [µM] | TGI (OVCAR-8 ovarian) [µM] | TGI (PC-3 prostate) [µM] | TGI (RXF 393 renal) [µM] | TGI (SF-539 CNS) [µM] | TGI (SK-OV-3 ovarian) [µM] | TGI (SR leukemia) [µM] | TGI (UACC-257 melanoma) [µM] | TGI (MOLT-4 leukemia) [µM]
1 | NC(=O)C(=O)c1ncn(Cc2ccccc2)c1N | > 100 | > 100 | > 100 | > 100 | > 100 | > 100 | > 100 | > 100 | > 100 | > 100 | > 100 | > 100 | > 100 | > 100 | > 100 | > 100 | > 100 | > 100 | 
2 | CCCCc1ccc(Nc2nc(Cl)c3ncn(COCCOC(C)=O)c3n2)cc1 | 59.3 |  | 48.5 | 20.3 | 45.6 | 30.8 | 52.7 | 31.6 | 41.3 | 50.7 | 35.7 | 32.6 | 32.2 | 38.2 | 63.3 | 76.9 | 53.8 | 36.4 | 61.8
3 | Cc1c2ccnc(C(=O)NCCN(C)C)c2cc2c3cc(O)ccc3n(C)c12 |  |  | 4.01 | 5.18 | 0.532 | 2.16 | 4.03 | 6.72 | 5.41 | 2.26 | 6.64 | 4.06 | 2 | 2.31 | 1.3 | 1.65 | < 0.0564 | 4.74 | 0.0147
4 | c1ccc2c(CN3CCN(Cc4c[nH]c5ccccc45)CC3)c[nH]c2c1 | 27.8 | 69.4 | 20.8 | 39.4 | 39.3 | 31.2 | 36.2 | 27.4 | 33.1 | 37.7 | 58 | 37.6 | 43.7 | 28.8 |  | 61.8 | 44.8 | 27.5 | 
5 | CCN1CCCC(C#N)(c2ccccc2)CC1 (stereo unspecified) | > 100 | > 100 | > 100 | > 100 | > 100 | > 100 | > 100 | > 100 | > 100 |  | > 100 | > 100 | > 100 | > 100 |  | > 100 | > 100 | > 100 | > 100
6 | COc1cc(/C=C2/SC(c3ccccc3)N(Cc3ccccc3)C2=O)cc(OC)c1OC (stereo unspecified) | > 100 | > 100 | 45.9 | > 100 |  | > 100 | > 100 |  | > 100 | > 100 | > 100 | > 100 |  | 72.3 |  | > 100 | 45.1 | > 100 | 63.2
7 | COC(=O)/C(=N\NC(N)=O)C(C(=O)C(=O)Nc1ccccc1OC)c1nc2ccc([N+](=O)[O-])cc2[nH]c1=O (stereo unspecified) | > 100 | > 100 |  | > 100 | > 100 | > 100 | > 100 | > 100 | > 100 | > 100 | > 100 | > 100 | > 100 | > 100 | > 100 | > 100 | > 100 | > 100 | 
8 | COc1cc(=O)c2c(O)c3c(O)oc(C)cc3c(OC)c2c1 | > 100 | 97.5 | 42.2 | 63.8 | > 100 | 76.1 | > 100 | 70.2 | 65.8 |  | 46.7 | 72 | > 100 | > 100 | 53.8 | 71.2 | 64.2 | > 100 | 73.7
9 | O=C(NC(=S)Nc1ccc2c(c1)Sc1ccccc1O2)c1ccc([N+](=O)[O-])cc1 |  | > 100 | > 100 | > 100 | > 100 | > 100 | > 100 | > 100 | > 100 | > 100 | > 100 | > 100 | > 100 | > 100 | > 100 | > 100 | > 100 | > 100 | 
10 | CCOP(=O)(OCC)C(C)(C)N(C)/C(F)=N/C(F)(F)F |  | > 100 | > 100 | > 100 | > 100 | > 100 | > 100 | > 100 | > 100 | > 100 | > 100 | > 100 | > 100 |  | > 100 | > 100 | > 100 | > 100 | > 100
11 | COc1cc2c(cc1C[C@H]1[C@@H]3C[C@H]4c5c(c6ccccc6n5C)C[C@@H]([C@@H]3CO[C@]1(C)OC(C)=O)N4C)c1c(n2C)C2C[C@H]3C(C(C)=O)=COC[C@H]3[C@H](C1)N2C | > 25 | 9.06 | 6.19 | 2.24 |  | 6.29 | 13.3 | > 25 | 5.27 | 21.7 | 8.32 | 8.83 | 2.7 | 6.04 | 5.87 | > 25 | 7.62 | 8.01 | > 25
12 | CCc1c(CN)c(CC)c(CNC2=NCCN2)c(CC)c1CNC1=NCCN1 | > 100 | > 100 | > 100 | > 100 |  | > 100 | > 100 | > 100 | > 100 | > 100 | > 100 | > 100 | > 100 | > 100 | > 100 | > 100 | > 100 | > 100 | > 100
13 | Cn1c(NNc2ccccc2)cc(=O)[nH]c1=O |  | > 100 | > 100 | > 100 | > 100 | > 100 | > 100 | > 100 | 65.3 | > 100 | > 100 | > 100 | > 100 | > 100 | > 100 | > 100 | > 100 | > 100 | > 100
14 | Cc1c(C)c(C)c(CC2(C)CSC2)c(CC2(C)CSC2)c1C | > 100 |  | > 100 | > 100 | > 100 | > 100 | > 100 | > 100 |  | > 100 | > 100 | > 100 | > 100 | > 100 | > 100 | > 100 | > 100 | > 100 | > 100
15 | O=C(c1ccccc1)c1ccc(N2C(=O)/C(=C/Cc3ccco3)N=C2c2ccccc2)c(N2C(=O)/C(=C/Cc3ccco3)N=C2c2ccccc2)c1 | > 100 | > 100 | > 100 | > 100 | 45.7 | > 100 | 64.9 | > 100 | > 100 |  | > 100 | > 100 | > 100 |  | 32.7 | 83 | > 100 | > 100 | 56.6
16 | O=P1(Oc2ccccc2)N=P(c2ccccc2)(c2ccccc2)C=C(c2ccc(Cl)cc2)N1 (stereo unspecified) |  | 23 | 17.1 | 21.6 | 20.5 | 33.6 | 43.5 | 26.5 | 25.1 |  | 27.9 | 29.8 | 20.7 |  | 28.9 | 26 | 21.5 | 30.8 | 22.4
17 | COc1cc(C(=O)/C=C/c2ccc(OCCSCCCCCCCCCCSCCOc3ccc(/C=C/C(=O)c4cc(OC)c(OC)c(OC)c4)cc3)cc2)cc(OC)c1OC | > 100 | > 100 | > 100 | > 100 | > 100 | > 100 | > 100 | > 100 | > 100 |  | > 100 | > 100 | > 100 | > 100 | > 100 |  | > 100 |  | > 100
18 | O=Cc1c2n(c3ccccc13)N[C@@](Cc1ccc(O)cc1)(C(=O)O)C2 | > 100 | > 100 | > 100 | > 100 | > 100 | > 100 | > 100 | > 100 | > 100 | > 100 | > 100 | > 100 | > 100 |  | > 100 | > 100 | > 100 | 86.9 | > 100
19 | CCN(CC)C(=O)Cn1c(-c2ccccc2)cc2ccccc21 |  |  | 34 | > 100 | > 100 | > 100 | > 100 | > 100 | > 100 | > 100 | > 100 | > 100 | > 100 | 97.4 | > 100 | > 100 | > 100 | > 100 | 42.7
20 | CC(OC(C)(C)C)C1NC(=O)C(CCCCNC(=O)OC(C)(C)C)NC(=O)C(Cc2c[nH]c3ccccc23)NC(=O)C(Cc2ccccc2)NC(=O)[C@H]2CCC[C@H]2NC(=O)C(Cc2ccccc2)NC1=O (stereo partly specified) (cyclo([X27][ξF][ξW][ξK](Boc)[ξT](tBu)[ξF])) |  | > 100 | > 100 | > 100 | > 100 | > 100 | 28.4 | > 100 | > 100 | > 100 | > 100 | > 100 | > 100 | > 100 | > 100 | > 100 | > 100 | 33.5 | > 100
21 | c1cnn(C23C4C5C6C4C2C6C53)c1 (stereo unspecified) | > 100 |  | > 100 | > 100 | > 100 | > 100 | > 100 | > 100 | > 100 | > 100 | > 100 | > 100 | > 100 |  | > 100 | > 100 | > 100 | > 100 | > 100
22 | CC(C)(C)n1c(=O)n2n(c1=O)Cc1cccc3cccc(c13)C2 |  | 36.9 | 72.3 | > 100 |  | 33.2 | 61.1 | 38.5 | 34 |  | 37.1 | 69.9 | 30.5 | 27.1 | 36.4 | 93.3 | 42.3 | 89.6 | 93.8
23 | CC(=O)OCC(OC(C)=O)C(OC(C)=O)C(/C=N\Nc1nc2ccccc2c(=O)[nH]1)=N\Nc1nc2ccccc2c(=O)[nH]1 (stereo unspecified) |  | > 100 | > 100 | > 100 | > 100 | > 100 | > 100 | > 100 | > 100 | > 100 | > 100 | > 100 | > 100 | > 100 | > 100 | > 100 | > 100 | 34 | > 100
24 | CCCC(=O)NC(Nc1cc(C)ccn1)(C(=O)OCC)C(F)(F)F (stereo unspecified) |  | > 100 | > 100 | > 100 | > 100 | > 100 | > 100 | > 100 | > 100 | > 100 | > 100 | > 100 | > 100 | > 100 | > 100 | > 100 | > 100 | > 100 | > 100
25 | Cc1ccc(S(=O)(=O)CN2C(=O)C(c3ccccc3)(c3ccccc3)C23OC(c2ccc(Cl)cc2)=CC3=O)cc1 (stereo unspecified) | > 10 | > 10 | > 10 | > 10 | > 10 | > 10 | > 10 | > 10 | > 10 | > 10 | > 10 | > 10 | > 10 | > 10 | > 10 | > 10 |  | > 10 | > 10
